Laboratory results published in patent US10968232B2 (Merck Sharp & Dohme Corp., priority 2016, dated 2021).

Target: T1, human GPR40 (Homo sapiens, UniProt O14842)
T1 construct: expressed in transfected cells
Assay: Inositol Phosphate Turnover (IP1) Assay
Type: cell-based
Conditions: HEK cells stably expressing human GPR40; CisBio IP-One kit; 60 minutes at 37 degrees; read-out: Human IP1 EC50
Method in brief: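 HEK cells stably expressing GPR40, plated 16 h, then exposed to compound in stimulation buffer for 60 min at 37 °C. IP1 accumulation read by HTRF IP-One detection after 60 min at RT.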

T1 sequence (O14842 whole entry): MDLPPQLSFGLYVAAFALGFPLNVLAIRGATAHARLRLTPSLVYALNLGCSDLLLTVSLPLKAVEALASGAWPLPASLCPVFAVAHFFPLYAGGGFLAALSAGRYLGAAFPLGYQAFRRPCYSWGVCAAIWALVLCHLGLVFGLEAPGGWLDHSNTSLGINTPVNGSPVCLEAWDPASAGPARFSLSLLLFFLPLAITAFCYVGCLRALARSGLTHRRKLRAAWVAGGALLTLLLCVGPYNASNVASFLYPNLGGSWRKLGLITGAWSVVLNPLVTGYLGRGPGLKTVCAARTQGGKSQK

SMILES	EC50 [nM]
C[C@H](C(=O)O)[C@H](c1ccc2c(c1)OC1(CC2)CC(N(C)[C@@H](C)c2cc(C(F)(F)F)ccc2C(F)(F)F)C1)C1CC1 (stereo partly drawn) [Example 100, (2S,3R)-3-(3′-(((S)-1-(2,5-bis(trifluoro-methyl)phenyl)ethyl)(meth-yl)amino)spiro[chro-man-2,1′-cyclobutan]-7-yl)-3-cyclopropyl-2-methylpropanic acid]	4.19
C[C@H](C(=O)O)[C@H](c1ccc2c(c1)OC1(CC2)CC(N(C)[C@H](C)c2cc(C(F)(F)F)ccc2C(F)(F)F)C1)C1CC1 (some centres unmarked) [Example 101]	17
CCC(c1cc(C(F)(F)F)cc(Cl)c1F)N1CCC2(CCc3ccc([C@H](C4CC4)[C@H](C)C(=O)O)cc3O2)CC1 (stereo partly drawn) [Example 109, (2S,3R)-3-(1′-(1-(3-chloro-2-fluoro-5-(tri-fluromethyl)phenyl)propyl)spiro[chroman-2,4′-piperidin]-7-yl)-3-cyclopropyl-2-methylpropanoic acid]	2.51
CCC(c1cc(Cl)ccc1OC(F)(F)F)N1CCC2(CCc3ccc([C@H](C4CC4)[C@H](C)C(=O)O)cc3O2)CC1 (stereo partly drawn) [Example 110, (2S,3R)-3-(1′-(1-(5-chloro-2-(trifluoromethoxy)phenyl)propyl)spiro[chroman-2,4′-piperidin]-7-yl)-3-cyclopropyl-2-methylpropanoic Acid]	0.812
CC(c1cc(C2CC2)ccc1OC(F)(F)F)N1CCC2(CCc3ccc([C@H](C4CC4)[C@H](C)C(=O)O)cc3O2)CC1 (stereo partly drawn) [Example 111, (2S,3R)-3-cyclopropyl-3-(1′-(1-(5-cyclopropyl-2-(trifluoromethoxy)phenyl)ethyl)spiro[chroman-2,4′-piperidin]-7-yl)-2-methylpropanoic Acid]	20.2
Cc1cscc1-c1ccc(OC(F)(F)F)c(C(C)N2CCC3(CCc4ccc([C@H](C5CC5)[C@H](C)C(=O)O)cc4O3)CC2)c1 (some centres unmarked) [Example 119]	15
Cc1noc(C)c1-c1ccc(OC(F)(F)F)c(C(C)N2CCC3(CCc4ccc([C@H](C5CC5)[C@H](C)C(=O)O)cc4O3)CC2)c1 (stereo partly drawn) [Example 121, (2S,3R)-3-cyclopropyl-3-(1′-(1-(5-(3,5-dimethylisoxazol-4-yl)-2-(trifluoro-methoxy)phenyl)ethyl)spiro [chroman-2,4′-piperidin]-7-yl)-2-methyl-propanoic acid]	110
CC(c1cc(C#N)ccc1OC(F)(F)F)N1CCC2(CCc3ccc([C@H](C4CC4)[C@H](C)C(=O)O)cc3O2)CC1 (stereo partly drawn) [Example 123, (2S,3R)-3-(1′-(1-(5-cyano-2-(trifluoromethoxy)phenyl)ethyl)spiro[chroman-2,4′-piperidin]-7-yl)-3-cyclopropyl-2-methylpropanoic Acid]	30.4
C[C@H](C(=O)O)[C@H](c1ccc2c(c1)OC1(CC2)CCN(Cc2cc(C#N)ccc2OC(F)(F)F)CC1)C1CC1 [Example 124, (2S,3R)-3-(1′-(5-cyano-2-(trifluoro-methoxy)-benzyl)spiro[chroman-2,4′-piperidin]-7-yl)-3-cyclopropyl-2-methylpropanoic acid]	64.1
C[C@H](C(=O)O)[C@H](c1ccc2c(c1)OC1(CC2)CC2(CN([C@H](C)c3cc(C(F)(F)F)ccc3C(F)(F)F)C2)C1)C1CC1 [Example 126, (2S,3R)-3-cyclopropyl-3-(2,2-(R)-2-(1-(2,5-bis(trifluoromethyl)phenyl)ethyl)-2-azaspiro[3.3]heptane-chroman-7-yl)-2-methylpropanoic Acid]	8.52
C[C@H](C(=O)O)[C@H](c1ccc2c(c1)OC1(CC2)CC2(CN([C@@H](C)c3cc(C(F)(F)F)ccc3C(F)(F)F)C2)C1)C1CC1 [Example 127, (2S,3R)-3-cyclopropyl-3-(2,2-(S)-2-(1-(2,5-bis(trifluoromethyl)phen-yl)ethyl)-2-azaspiro[3.3]-heptane-chroman-7-yl)-2-methylpropanoic acid]	0.46
C[C@H](C(=O)O)[C@H](c1ccc2c(c1)OC1(CC2)CCN(Cc2cc(C(F)(F)F)ccc2C(F)(F)F)CC1)C1CC1 [Example 129, Sodium (2S,3R)-3-(1′-(2,5-bis(trifluoromethyl)benzyl)spiro[chromane-2,4′-piperidin]-7-yl)-3-cyclopropyl-2-methylpropanoate]	3.8
C[C@H](C(=O)O)[C@H](c1ccc2c(c1)OC1(CC2)CCN([C@H](C)c2cc(C(F)(F)F)ccc2C(F)(F)F)CC1)C1CC1 [Example 130, Sodium (2S,3R)-3-(1′-((R)-1-(2,5-Bis(trifluoromethyl)phenyl)ethyl)spiro[chromane-2,4′-piperidin]-7-yl)-3-cyclopropyl-2-methylpropanoate]	3.1
C[C@H](C(=O)O)[C@H](c1ccc2c(c1)OC1(CC2)CCN([C@@H](C)c2cc(C(F)(F)F)ccc2C(F)(F)F)CC1)C1CC1 [Example 131, Sodium (2S,3R)-3-(1′-((S)-1-(2,5-bis(trifluoromethyl)phenyl)ethyl)spiro[chromane-2,4′-piperidin]-7-yl)-3-cyclopropyl-2-methylpropanoate]	> 1000
C[C@H](C(=O)O)[C@H](c1ccc2c(c1)OC1(CC2)CCN([C@@H](C)c2cc(F)ccc2OC(F)(F)F)CC1)C1CC1 [Example 132, Sodium (2S,3R)-3-cyclopropyl-3-(1′-((S)-1-(5-fluoro-2-(trifluoromethoxy)phenyl)ethyl)spiro[chromane-2,4′-piperidin]-7-yl)-2-methylpropanoate]	11.2
CC(c1cc(Cl)ccc1OC(F)(F)F)N1CCC2(CCc3ccc([C@H](C4CC4)[C@H](C)C(=O)O)cc3O2)CC1 (stereo partly drawn) [Example 133, Sodium (2S,3R)-3-(1′-(1-(5-chloro-2-(trifluoromethoxy)phenyl)ethyl)spiro[chromane-2,4′-piperidin]-7-yl)-3-cyclopropyl-2-methylpropanoate]	3.3
CC(c1cc(Cl)ccc1OC(F)(F)F)N1CCC2(CCc3ccc([C@H](C4CC4)[C@H](C)C(=O)O)cc3O2)CC1 (stereo partly drawn) [Example 134, Sodium (2S,3R)-3-(1′-(1-(5-chloro-2-(trifluoromethoxy)phenyl)ethyl)spiro[chromane-2,4′-piperidin]-7-yl)-3-cyclopropyl-2-methylpropanoate]	1.4
